Experimental data published in patent publication US7119256B2, “Gene encoding acetolactate synthase” (priority 2000, dated 2006).
Values joined by “and” are separate entries in the source; they are usually repeats but may differ in a detail not shown here. Equal entries are not always repeated.

Legend:
mutant ALS protein [1] = biological target: mutant ALS protein (Oryza sativa subsp. japonica, UniProt Q6K2E8, S627I/W548L); test: Herbicide sensitivity of ALS partially purified from the resistant mutant (acetoin colorimetric ALS activity); type: biochemical, rice (Kinmaze); parameters: from tissue; host or cells: resistant mutant rice (Kinmaze) cultured cells, liquid culture; ammonium sulfate, Sephadex G-25, HiTrap Q
Description: (§1) First, 200 g or more of resistant mutant was prepared by a liquid culture method (no supplementation with bispyribac-sodium), the culture having a composition as shown in Table 1 but without Gelrite. Then, about 150 g of the resistant mutant was homogenized using Hiscotron in a volume of buffer-1 [100 mM potassium phosphate buffer (pH 7.5) containing 20% (v/v) glycerol, 0.5 mM thiamin pyrophosphate (TPP), 10 μM flavin adenine dinucleotide (FAD), 0.5 mM MgCl2, and a volume of polyvinyl polypyrrolidone one-tenth that of tissue volume] 3-fold greater than tissue volume. The homogenate was filtered through nylon gauze, and then centrifuged at 15,000×g for 20 min. Ammonium sulfate was added to the centrifuged supernatant to 50% saturation, and then allowed to stand in ice for approximately 1 hour. The mixture was again centrifuged at 15,000×g for 20 min, and then the precipitated fraction was dissolved in about 30 ml of buffer-2 [10 mM Tris hydrochloric acid buffer (pH 7.5) containing 20% (v/v) glycerol, 0.5 mM TPP and 0.5 mM MgCl2]. […]
(§2) Next, the protein concentration of the crude enzyme solution was measured by the Bradford method according to the manual of Bio-Rad Protein Assay. […]
(§3) ALS activity resulting from the mutant ALS protein contained in the eluted fractions apportioned into each test tube for apportion was measured as follows. A reaction solution to be used in a measurement reaction was prepared by mixing an eluted fraction to be measured with a solution comprising 20 mM sodium pyruvate, 0.5 mM TPP, 0.5 mM MgCl2, 10 μM FAD and 20 mM potassium phosphate buffer (pH 7.5). […] After the eluted fraction to be measured was added, the measurement reaction was performed at 30° C. for 40 to 60 min. […]
(§4) Then, to quantify acetoin contained in the reaction solution, 1 ml of 0.5% (w/v) creatine and 1 ml of 5% (w/v) α-naphthol dissolved in 2.5 N sodium hydroxide was added to the reaction solution, followed by incubation at 37° C. for 10 min. Acetoin was then quantified by color comparison of the absorbance (at 525 nm) of the reaction solution, thereby evaluating ALS activity. […]

W548L mutant ALS = biological target: T1, W548L mutant ALS (Oryza sativa subsp. japonica, UniProt Q6K2E8, W548L); test: Herbicide sensitivity of crude ALS with W548L mutation only, 1 mM valine; type: biochemical, rice; details: crude enzyme
T1 construct: one type of cDNA containing a full length ALS gene could be obtained from a cDNA library derived from the wild type; made in house; host or cells: E. coli JM 109, pGEX-2T backbone (pGEX-2T-wALS); crude enzyme solution
Description: (§5) A plasmid having W548L mutant ALS gene or a plasmid having S627I mutant ALS gene was transformed into E. coli strain JM 109. The colonies obtained from transformation were subjected to liquid culture, expression of GST induction protein was induced in the same manner as in Examples 4 and 5, a crude enzyme solution was prepared, and then herbicide sensitivity of ALS was examined in the presence of 1 mM valine.

wild type ALS protein = biological target: T2, wild type ALS protein (Oryza sativa subsp. japonica, UniProt Q6K2E8); test: Herbicide sensitivity of partially purified wild type ALS protein (acetoin colorimetric ALS activity); type: biochemical, rice (Kinmaze); parameters: the wild type ALS protein was separated and purified in the same manner and used for the experiment; from tissue; host or cells: wild type rice (Kinmaze) cultured cells, liquid culture; ammonium sulfate, Sephadex G-25, HiTrap Q
T2 sequence (Q6K2E8 44-644): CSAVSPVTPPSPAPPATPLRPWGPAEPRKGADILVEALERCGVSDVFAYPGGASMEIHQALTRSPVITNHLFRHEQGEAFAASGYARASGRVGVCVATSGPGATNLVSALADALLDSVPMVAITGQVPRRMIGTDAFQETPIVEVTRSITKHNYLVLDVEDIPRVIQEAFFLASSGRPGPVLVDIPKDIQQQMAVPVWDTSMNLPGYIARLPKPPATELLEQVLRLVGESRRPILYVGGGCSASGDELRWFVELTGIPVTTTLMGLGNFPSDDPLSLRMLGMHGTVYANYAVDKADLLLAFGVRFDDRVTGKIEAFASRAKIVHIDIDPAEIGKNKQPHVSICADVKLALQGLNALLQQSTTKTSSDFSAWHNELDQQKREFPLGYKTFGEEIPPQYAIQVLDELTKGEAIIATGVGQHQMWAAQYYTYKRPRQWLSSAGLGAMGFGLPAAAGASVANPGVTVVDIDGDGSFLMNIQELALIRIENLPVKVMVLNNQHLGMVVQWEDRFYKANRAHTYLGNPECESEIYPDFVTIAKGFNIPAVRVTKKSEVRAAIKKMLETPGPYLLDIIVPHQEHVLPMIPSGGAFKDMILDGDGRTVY

S627I mutant ALS = biological target: T3, S627I mutant ALS (Oryza sativa subsp. japonica, UniProt Q6K2E8, S627I); test: Herbicide sensitivity of crude ALS with S627I mutation only, 1 mM valine; type: biochemical, rice; details: crude enzyme
T3 construct: one type of cDNA containing a full length ALS gene could be obtained from a cDNA library derived from the wild type; made in house; host or cells: E. coli JM 109, pGEX-2T backbone; crude enzyme solution
Description: as §5

mutant ALS protein [2] = test: Herbicide sensitivity of ALS partially purified from the resistant mutant (acetoin colorimetric ALS activity); type: biochemical, rice (Kinmaze)
Description: as §1, §2, §3, §4

ALS isozyme I = biological target: T4, ALS isozyme I (Escherichia coli, UniProt P08142+P0ADF8); test: Inhibition by valine of ALS activity derived from E. coli (no plasmid); type: biochemical
T4 construct: CK1 (without plasmid); endogenous in cells
Description: ALS activity resulting from the mutant ALS protein contained in the eluted fractions apportioned into each test tube for apportion was measured as follows. A reaction solution to be used in a measurement reaction was prepared by mixing an eluted fraction to be measured with a solution comprising 20 mM sodium pyruvate, 0.5 mM TPP, 0.5 mM MgCl2, 10 μM FAD and 20 mM potassium phosphate buffer (pH 7.5). One ml of this reaction solution was used. After the eluted fraction to be measured was added, the measurement reaction was performed at 30° C. for 40 to 60 min. Then, the reaction was stopped by addition of 0.1 ml of 6N sulfuric acid (or 0.25 N sodium hydroxide).
The prepared ALS enzyme contains ALS activity derived from E. coli.

[3] = 1 mM Valine, E. coli without plasmid

T4 sequence (P0ADF8 whole entry): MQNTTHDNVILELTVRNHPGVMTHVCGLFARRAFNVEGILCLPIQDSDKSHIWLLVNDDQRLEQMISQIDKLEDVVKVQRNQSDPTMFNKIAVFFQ
T4 sequence (P08142 whole entry): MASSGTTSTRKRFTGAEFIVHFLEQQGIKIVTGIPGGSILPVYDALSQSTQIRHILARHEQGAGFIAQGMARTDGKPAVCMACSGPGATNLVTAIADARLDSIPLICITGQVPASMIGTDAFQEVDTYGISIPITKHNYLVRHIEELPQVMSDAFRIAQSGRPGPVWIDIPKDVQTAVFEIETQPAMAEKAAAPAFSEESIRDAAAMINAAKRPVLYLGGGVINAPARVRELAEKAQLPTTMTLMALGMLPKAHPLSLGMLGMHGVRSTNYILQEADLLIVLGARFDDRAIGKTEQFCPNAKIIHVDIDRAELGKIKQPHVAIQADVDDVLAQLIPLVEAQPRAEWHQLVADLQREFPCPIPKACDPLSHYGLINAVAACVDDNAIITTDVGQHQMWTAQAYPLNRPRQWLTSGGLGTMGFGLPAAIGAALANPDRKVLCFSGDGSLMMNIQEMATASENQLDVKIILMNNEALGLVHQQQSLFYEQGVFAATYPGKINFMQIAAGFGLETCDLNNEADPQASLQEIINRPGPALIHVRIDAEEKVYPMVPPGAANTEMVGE
mutant ALS protein (Oryza sativa subsp. japonica, UniProt Q6K2E8, S627I/W548L), sequence (Q6K2E8 44-644 W548L/S627I): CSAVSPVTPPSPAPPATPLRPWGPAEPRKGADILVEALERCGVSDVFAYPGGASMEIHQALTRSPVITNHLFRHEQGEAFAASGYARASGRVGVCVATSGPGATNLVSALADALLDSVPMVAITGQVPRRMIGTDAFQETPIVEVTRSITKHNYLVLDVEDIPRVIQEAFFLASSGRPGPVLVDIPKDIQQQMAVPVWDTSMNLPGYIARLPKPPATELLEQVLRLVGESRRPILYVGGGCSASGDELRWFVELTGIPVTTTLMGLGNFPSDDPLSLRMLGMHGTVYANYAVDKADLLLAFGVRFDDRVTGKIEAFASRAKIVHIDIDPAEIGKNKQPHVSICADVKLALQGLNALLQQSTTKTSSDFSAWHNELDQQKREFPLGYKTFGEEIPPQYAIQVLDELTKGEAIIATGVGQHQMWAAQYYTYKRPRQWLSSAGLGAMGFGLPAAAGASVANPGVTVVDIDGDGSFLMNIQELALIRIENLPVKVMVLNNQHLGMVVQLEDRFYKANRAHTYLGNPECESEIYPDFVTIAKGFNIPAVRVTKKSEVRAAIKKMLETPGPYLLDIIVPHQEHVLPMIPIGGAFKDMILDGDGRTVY
T3 sequence (Q6K2E8 44-644 S627I): as the sequence (Q6K2E8 44-644 W548L/S627I) above, with L505W counted along it
T1 sequence (Q6K2E8 44-644 W548L): as the sequence (Q6K2E8 44-644 W548L/S627I) above, with I584S counted along it

In the case of `CC(C)C1(C)N=C(c2nc3ccccc3cc2C(=O)O)NC1=O` (stereo not drawn) [Imazaquin, imazaquin], the IC50 (mutant ALS protein [1]) is reported as 16.7 µM, the “resistance imparted by W548L mutation alone” value (W548L mutant ALS) is reported as “results were similar to those for bispyribac-sodium” and the IC50 (wild type ALS protein) is reported as 1.48 µM. For the same molecule, the “resistance imparted by S627I mutation alone” value (S627I mutant ALS) was “results were similar to those for bispyribac-sodium” and the “RS ratio Resistant mutant: I50 (resistant mutant)/I50 (wild type)” value (mutant ALS protein [2]) was 11.3.
For `CC(C)[C@H](N)C(=O)O` [Valine, valine], the ALS activity (ALS isozyme I; [3]) was 0.1768 OD525/40 min/0.05 ml and 0.1831 OD525/40 min/0.05 ml, the Inhibition rate (ALS isozyme I; [3]) was 88% and the inhibition at 1000 µM (ALS isozyme I; 1 mM Valine, E. coli without plasmid, read-out: Inhibition rate) was 86%. For the same molecule, the “inhibition of ALS activity derived from E. coli” value (ALS isozyme I; 1 mM valine) was “almost completely inhibited”.
